In US6818739B2, “Somatostatins” (NDSU Research Foundation, priority 1999, dated 2004):
Ends that are not written are not given here.

Key:
[1] = tested on: rainbow trout; details: in rainbow trout; Eilertson et al. 1993; cited from earlier work
[2] = tested on: goldfish pituitary fragments; details: goldfish pituitary fragments in vitro; Marchant et al. 1989; cited from earlier work
[3] = target: T1, human somatostatin receptor subtype 1 (Homo sapiens, UniProt P30872); assay: Radio-receptor assay: competitive binding of somatostatins to cloned somatostatin receptor; details: microsomes from COS-7 cells transiently expressing the human SS type 1 receptor; compared with mammalian SS-14 and mammalian SS-28; FIG. 8
T1 construct: expressed in transfected cells; host or cells: COS-7 cells, transient transfection with pCMV6b expression vector; microsomal membranes
Experimental: Somatostatin receptor cDNA was cloned into an expression vector, transfected into a eukaryotic cell line, and expressed as a peptide on the cell's surface to characterized the binding properties of the receptor for various somatostatin ligands.
Human somatostatin receptor subtype I cDNA was graciously obtained from Dr. Graeme Bell at the University of Chicago. Clones were prepared substantially as described in Yamada et al., Proc. Natl. Acad. Sci. USA, 89, 251-255 (1992). Briefly, a cDNA library was created by inserting total cDNA into a cloning vector. Clones containing the cDNA inserts were digested with restriction endonuclease Bg1II and subsequently subcloned in the pCMV6b expression vector (Stratagene Zap Express cDNA Synthesis Kit, La Jolla, Calif.). The resulting expression vector containing the cloned somatostatin receptor was transfected into COS-7 (American Tissue Culture Collection, Manassas, Va.) cells for peptide expression.
Twenty-four hours after splitting cells (e.g., COS-7) into new T-75 culture flasks (Nalgene, Rochester, N.Y.), the cells were washed with phosphate-buffered saline (PBS) and Tris-buffered saline-dextrose (TBS-D) solutions. […]
All tubes were incubated for 30-60 minutes at 37° C. while shaking. […] The resulting pellets were counted in a gamma counter to determine the binding properties of the various ligands to the somatostatin receptor.

[4] = target: T2, cloned human somatostatin receptor subtype 1 (human, UniProt P30872 1-391); assay: radio-receptor competition assay, displacement of 125I-[Tyr1]-SS-14 from COS-7 microsomal membranes
T2 construct: whole, on cells; Transiently expressed in COS-7 cells; The assay used microsomal membrane preparations of these cells, not intact cells; also called human SS type 1 receptor; human somatostatin receptor type 1
T2 sequence (P30872 whole entry): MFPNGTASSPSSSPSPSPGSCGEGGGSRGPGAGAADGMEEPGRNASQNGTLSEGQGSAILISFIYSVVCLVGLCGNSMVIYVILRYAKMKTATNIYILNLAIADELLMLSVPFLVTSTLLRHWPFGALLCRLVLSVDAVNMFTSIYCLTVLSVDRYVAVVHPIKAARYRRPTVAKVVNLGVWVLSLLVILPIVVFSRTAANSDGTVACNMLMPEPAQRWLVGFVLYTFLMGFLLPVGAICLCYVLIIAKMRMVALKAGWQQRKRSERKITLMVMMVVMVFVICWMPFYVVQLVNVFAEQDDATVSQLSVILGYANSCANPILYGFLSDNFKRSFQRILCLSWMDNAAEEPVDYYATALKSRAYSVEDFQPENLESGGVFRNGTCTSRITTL
Experimental: Briefly, cell membranes, 25–1000 µg, were added to two sets of tubes labeled for total and non-specific binding (in triplicate) containing the following reagents in a final volume of 300 µl.
All tubes were incubated for 30–60 minutes at 37° C. while shaking. Reactions were stopped by adding 1 ml of ice-cold assay buffer and centrifuged at 20,000×g for 15 minutes. The supernatant is aspirated off. The resulting pellets were washed once with ice-cold assay buffer and centrifuged again at 20,000×g for 15 minutes. Again, the supernatant was aspirated off. The resulting pellets were counted in a gamma counter to determine the binding properties of the various ligands to the somatostatin receptor.

T1 sequence (P30872 whole entry): as above

| affinity of the human somatostatin receptor type 1 for the ligand (inhibition of binding of 125I-[Tyr1]-SS-14) [3] | binding result [4] | Molecule | inhibition of insulin [1] | ability to inhibit the release of growth hormone [2] |
| --- | --- | --- | --- | --- |
| – | – | Ala-Gly-Cys-Lys-Asn-Phe-Phe-Trp-Lys-Thr-Phe-Thr-Ser-Cys [SS-14] | did not | equipotent |
| – | – | Ser-Ala-Asn-Ser-Asn-Pro-Ala-Met-Ala-Pro-Arg-Glu-Arg-Lys-Ala-Gly-Cys-Lys-Asn-Phe-Phe-Trp-Lys-Thr-Phe-Thr-Ser-Cys (SANSNPAMAPRERKAGCKNFFWKTFTSC; listed as Homo sapiens) [SS-28] | – | equipotent |
| greater affinity | – | salmonid SS-25: 25 amino acid PPSS-II″ proprotein containing [Tyr7, Gly10]-SS-14 at its C-terminus; synthetic (SVDNLPPRERKAGCKNFYWKGFTSC; ends and bridges not checked; cysteine pairing not given here) | inhibited insulin | no effect |
| – | binds | SANSNPAMAPRERKAGCKNFFWKTFTSC [mammalian SS-28] | – | – |
